In ChEMBL document CHEMBL1158146, “Oppositines A and B, sesquiterpene pyridine alkaloids from a Sri Lankan Pleurostylia opposita” (J Nat Prod, 2006):
The source made the active and inactive calls. No cut-off for these calls is given here.

Tests used:
[1] = test system: Human immunodeficiency virus; assay: Antiviral activity against HIV upto 10 ug/mL; assay type: functional, organism-based
[2] = target: Hypoxia-inducible factor 1-alpha (Homo sapiens) (UniProt Q16665); assay: Inhibition of HIF1alpha
[3] = Cytotoxicity against human HCT 116 cells after 48 hrs by MTT assay; assay type: functional, cell-based; settings: HCT-116, 48 h

Hypoxia-inducible factor 1-alpha (Homo sapiens), sequence (Q16665 whole entry, looked up): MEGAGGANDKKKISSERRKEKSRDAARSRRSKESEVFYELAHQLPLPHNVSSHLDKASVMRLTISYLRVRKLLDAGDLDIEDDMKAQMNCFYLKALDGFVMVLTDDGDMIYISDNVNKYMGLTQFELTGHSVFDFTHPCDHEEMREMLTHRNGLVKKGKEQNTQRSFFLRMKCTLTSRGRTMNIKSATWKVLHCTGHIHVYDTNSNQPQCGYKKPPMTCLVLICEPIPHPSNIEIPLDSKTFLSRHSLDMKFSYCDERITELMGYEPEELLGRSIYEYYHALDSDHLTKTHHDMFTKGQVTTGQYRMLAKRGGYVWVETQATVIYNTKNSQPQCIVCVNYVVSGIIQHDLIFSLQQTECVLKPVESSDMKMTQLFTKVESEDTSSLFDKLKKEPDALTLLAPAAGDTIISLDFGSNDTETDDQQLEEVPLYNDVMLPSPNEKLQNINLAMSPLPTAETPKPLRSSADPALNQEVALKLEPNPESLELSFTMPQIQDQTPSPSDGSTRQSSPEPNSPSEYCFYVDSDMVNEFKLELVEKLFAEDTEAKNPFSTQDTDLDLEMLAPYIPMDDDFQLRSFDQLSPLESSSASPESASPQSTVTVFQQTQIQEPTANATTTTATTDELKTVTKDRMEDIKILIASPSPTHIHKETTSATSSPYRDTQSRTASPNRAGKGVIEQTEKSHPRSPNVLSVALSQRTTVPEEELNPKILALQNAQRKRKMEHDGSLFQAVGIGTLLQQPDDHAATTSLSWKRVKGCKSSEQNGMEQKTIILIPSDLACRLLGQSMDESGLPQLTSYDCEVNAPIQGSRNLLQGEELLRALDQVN

SMILES	Activity [1]	Activity [2]	EC50 [3] [µM]
CCC1CCC(=O)O[C@H]2[C@H](OC(C)=O)[C@H](OC(=O)c3ccccc3)[C@@]3(COC(C)=O)[C@H](OC(C)=O)[C@H](OC(C)=O)[C@@H]4[C@@H](OC(C)=O)[C@]3(O[C@]4(C)COC(=O)c3cccnc31)[C@@]2(C)O (stereo partly specified) [OPPOSITINE A]	inactive	inactive	27
CCC1CCC(=O)O[C@H]2[C@H](OC(C)=O)[C@H](OC(=O)c3ccccc3)[C@@]3(COC(C)=O)[C@H](OC(C)=O)[C@H](OC(C)=O)[C@@H]4[C@@H](OC(C)=O)[C@]3(O[C@]4(C)COC(=O)c3cccnc31)[C@@H]2C (stereo partly specified) [OPPOSITINE B]	inactive	inactive	26
